Values of other authors in US20100048397A1, “GABA/Pesticidal Combinations” (priority 2008, published 2010).

Legend:
leek seed = conditions: seed treatment, compared with seed treated with fipronil
[1] = tested on: greenhouse-grown cucumber plants; conditions: in vivo
[2] = tested on: greenhouse-grown tomato plants; conditions: in vivo

O=[N+]([O-])NC1=NCCN1Cc1ccc(Cl)nc1 [imidacloprid, (E)-1-(6-chloro-3-pyridylmethyl)-N-nitroimidazolidin-2-ylideneamine]
phytotoxicity, germination rate (leek seed): delayed germination rates
phytotoxicity at lowest rate [1]: caused phytotoxicity symptoms
phytotoxicity at lowest rate [2]: caused phytotoxicity symptoms
